Data from publication PMC4585259 (Frontiers in Pharmacology, 2015).
Like-named read-outs stand apart in the source and are kept apart here.

Target: T1, rNav1.2 sodium channels (Rattus norvegicus, UniProt P04775)
T1 construct: host or cells: HEK-293
Experiment: QPatch automated patch clamp, inhibition of sodium currents evoked by 5 Hz trains at three extracellular pH values
Assay type: cell-based
Details: for class of pH-dependence pattern (cluster analysis): Ward's method on 18 variables of affinity, reversibility, onset; for τoffset / τonset: concentration (lidocaine 300 μM, memantine 30 μM)
Description: HEK-293 cells stably expressing rNav1.2 sodium channels were obtained from NeuroSearch (Ballerup, Denmark). The cells were grown in Dulbecco's modified Eagle medium supplemented with 10% FBS. Prior to use, the cells were trypsinized and subsequently kept in suspension in the QPatch cell storage facility in CHO-S- SFM-II medium.
Composition of the extracellular solution was: (in mM): 140 NaCl, 3 KCl, 1 CaCl2 1 MgCl2, 0.1 CdCl2, 20 TEA-Cl, 5 HEPES, adjusted to pH 7.3, Osmolality: 320 mOsm. […] Drugs were synthesized in Gedeon Richter Plc. […] The full list of drugs, with their three-letter codes, concentration, as well as their main therapeutic indication and main mechanism of action are shown in Table 1. […] The choice of concentrations used in this study may seem unusually high.
Data were sampled at a frequency of 25 kHz and filtered at 5 kHz. Junction potential was calculated to be −11 mV and was corrected for. […] Cells having membrane resistance < 500 MOhm, series resistance > 9 MOhm, or capacitance > 22 pF were excluded from analysis. The experimental protocol was also identical to the one used in our previous study: sodium channels were activated by 5 Hz trains of 5 depolarizations (−90 to −10 mV) repeated in every 20 s. In this study, however, the same control–drug-application–washout sequence was repeated four times: at neutral, acidic, alkalic, and again neutral pH. The peak amplitudes of sodium currents throughout the whole experiment are shown plotted against time in Figure 1 and Supplementary Figure 1.
Initial analysis, including subtraction of leak and capacitive artifacts, as well as peak detection were done in the QPatch software. […] All experiments were normalized to the amplitude of the current evoked by the first depolarization of the last train under control conditions. […] For all four drug applications in an experiment, apparent affinity, onset and offset time constants as well as reversibility values were calculated. […] (This method is equivalent to applying the Lineweaver-Burk plot method using a single concentration.) Reversibility values were calculated from control (c), inhibited (i), and wash-out (w) amplitudes as follows: Reversibility = (w-i)/(c-i). Reversibility values should not be regarded as experimental platform-independent properties of compounds. […] However, reversibility values are a valuable source of information regarding physicochemical differences between individual drugs, or between effects of the same drug under different extracellular pH conditions. Onset and offset time constants were determined by single exponential fitting to individual experiments. For neutral pH numerical data were given as the average of the data from the first and the last drug applications. Thin black lines on Figure 1 and Supplemental Figure 1 show the average of five fitted exponentials, (not the exponential fitted to the averaged normalized amplitudes). The numerical values of apparent affinity, onset and offset time constants and reversibility are shown in Table 2, and their relative position is illustrated in Figure 2. Affinity and time constant values were logarithmically transformed for statistics, therefore we show their geometric mean. For recovery data no transformation was done, and we show arithmetic mean values. Significance values were calculated using paired, two-tailed Student's t-test based on five pairs of apparent affinity (log transform), time constant (log transform), or reversibility values obtained from five individual experiments. Because of the large number of comparisons in this study, we accepted p < 0.01 as significant. Cluster analysis was done using Ward's minimum variance method, with Euclidean distance measure. Data were normalized by subtracting the mean (after logarithmic transformation in the case of apparent affinity and time constants), and dividing by the standard deviation.

[1] = pH 6.0, single concentration (lidocaine 300 μM, memantine 30 μM), geometric mean of 5, read-out: apparent affinity
[2] = pH 7.3, single concentration (lidocaine 300 μM, memantine 30 μM), geometric mean of 5, read-out: apparent affinity
[3] = pH 8.6, single concentration (lidocaine 300 μM, memantine 30 μM), geometric mean of 5, read-out: apparent affinity

T1 sequence (P04775 whole entry): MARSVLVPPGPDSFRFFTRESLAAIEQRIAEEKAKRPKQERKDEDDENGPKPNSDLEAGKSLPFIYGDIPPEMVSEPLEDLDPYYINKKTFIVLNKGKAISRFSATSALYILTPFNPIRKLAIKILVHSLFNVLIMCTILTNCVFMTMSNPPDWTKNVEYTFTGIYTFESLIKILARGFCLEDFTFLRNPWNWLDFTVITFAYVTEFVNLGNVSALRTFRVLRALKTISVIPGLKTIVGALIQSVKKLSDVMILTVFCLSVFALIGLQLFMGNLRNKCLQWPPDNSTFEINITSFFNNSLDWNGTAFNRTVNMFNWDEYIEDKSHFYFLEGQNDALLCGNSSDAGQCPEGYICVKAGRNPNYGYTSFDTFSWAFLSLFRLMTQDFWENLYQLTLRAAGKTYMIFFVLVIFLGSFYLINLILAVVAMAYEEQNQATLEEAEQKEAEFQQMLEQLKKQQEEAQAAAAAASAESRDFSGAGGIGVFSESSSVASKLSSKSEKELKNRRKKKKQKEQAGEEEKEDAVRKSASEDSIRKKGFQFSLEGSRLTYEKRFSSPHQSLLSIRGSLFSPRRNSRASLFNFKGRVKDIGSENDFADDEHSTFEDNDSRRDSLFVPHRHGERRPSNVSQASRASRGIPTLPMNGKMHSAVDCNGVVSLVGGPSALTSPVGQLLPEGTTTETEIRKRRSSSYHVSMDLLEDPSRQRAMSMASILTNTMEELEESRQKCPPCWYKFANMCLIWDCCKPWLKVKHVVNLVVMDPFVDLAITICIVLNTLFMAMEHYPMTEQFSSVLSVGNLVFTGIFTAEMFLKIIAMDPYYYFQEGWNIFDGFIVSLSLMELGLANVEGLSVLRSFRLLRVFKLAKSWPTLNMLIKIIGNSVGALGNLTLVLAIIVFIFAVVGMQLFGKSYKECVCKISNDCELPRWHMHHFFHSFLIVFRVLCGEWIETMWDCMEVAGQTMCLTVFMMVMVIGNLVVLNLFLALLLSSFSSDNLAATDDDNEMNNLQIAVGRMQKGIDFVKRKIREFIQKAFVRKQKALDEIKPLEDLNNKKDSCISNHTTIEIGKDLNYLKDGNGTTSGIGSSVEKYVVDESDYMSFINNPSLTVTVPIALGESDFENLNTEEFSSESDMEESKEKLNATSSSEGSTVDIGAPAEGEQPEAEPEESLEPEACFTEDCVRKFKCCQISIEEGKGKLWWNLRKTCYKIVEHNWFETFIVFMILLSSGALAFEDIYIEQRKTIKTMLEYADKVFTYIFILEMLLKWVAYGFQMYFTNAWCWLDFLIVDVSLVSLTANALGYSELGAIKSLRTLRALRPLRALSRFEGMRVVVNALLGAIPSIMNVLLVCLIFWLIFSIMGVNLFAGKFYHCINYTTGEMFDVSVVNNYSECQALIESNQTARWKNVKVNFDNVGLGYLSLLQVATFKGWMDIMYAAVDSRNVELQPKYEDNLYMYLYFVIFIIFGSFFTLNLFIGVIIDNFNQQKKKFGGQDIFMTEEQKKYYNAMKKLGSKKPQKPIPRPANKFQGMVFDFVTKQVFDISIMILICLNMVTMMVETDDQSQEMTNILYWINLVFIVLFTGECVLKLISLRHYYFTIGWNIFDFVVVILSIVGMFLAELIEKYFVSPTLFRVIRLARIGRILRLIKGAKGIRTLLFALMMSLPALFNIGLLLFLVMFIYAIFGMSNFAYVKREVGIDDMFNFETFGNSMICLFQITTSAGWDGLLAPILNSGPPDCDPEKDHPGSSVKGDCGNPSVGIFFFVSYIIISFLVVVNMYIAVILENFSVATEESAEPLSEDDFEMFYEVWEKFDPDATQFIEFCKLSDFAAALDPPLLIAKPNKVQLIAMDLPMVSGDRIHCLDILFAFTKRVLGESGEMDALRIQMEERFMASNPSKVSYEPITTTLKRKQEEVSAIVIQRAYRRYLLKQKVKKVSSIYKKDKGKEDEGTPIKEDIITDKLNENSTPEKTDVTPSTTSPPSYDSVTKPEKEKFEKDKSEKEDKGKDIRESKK

O=C1NC(=O)C(c2ccccc2)(c2ccccc2)N1 [phenytoin]
class of pH-dependence pattern (cluster analysis): Class A | Ratio Reversibility (pH 6.0/7.3, cc 300 mM): 1.014 | Ratio Tau Offset (pH 6.0/7.3, cc 300 mM): 1.227 | Ratio Tau Onset (pH 6.0/7.3, cc 300 mM): 0.985 | log Ratio App Aff (pH 6.0/7.3, cc 300 mM): 0.026 | Ratio Reversibility (pH 6.0/8.6, cc 300 mM): 1.313 | Ratio Tau Offset (pH 6.0/8.6, cc 300 mM): 0.993 | Ratio Tau Onset (pH 6.0/8.6, cc 300 mM): 0.650 | log Ratio App Aff (pH 6.0/8.6, cc 300 mM): 0.109 | τoffset (pH 6.0): 21.26 s | τonset (pH 6.0): 13.00 s | Kd [1]: 830 µM | Ratio Reversibility (pH 7.3/8.6, cc 300 mM): 1.295 | Ratio Tau Offset (pH 7.3/8.6, cc 300 mM): 0.809 | Ratio Tau Onset (pH 7.3/8.6, cc 300 mM): 0.660 | log Ratio App Aff (pH 7.3/8.6, cc 300 mM): 0.083 | τoffset (pH 7.3): 17.32 s | τonset (pH 7.3): 13.20 s | Kd [2]: 781 µM | τoffset (pH 8.6): 21.40 s | τonset (pH 8.6): 20.00 s | Kd [3]: 646 µM | Reversibility (pH=6.0, cc 300 mM): 0.83 | Kd (pH=6.0, cc 300 mM, read-out: Apparent Affinity): 830 µM | Reversibility (pH=7.3, cc 300 mM): 0.82 | Kd (pH=7.3, cc 300 mM, read-out: Apparent Affinity): 781 µM | Reversibility (pH=8.6, cc 300 mM): 0.63 | Kd (pH=8.6, cc 300 mM, read-out: Apparent Affinity): 646 µM

COc1ccccc1OCC(O)CN1CCN(CC(=O)Nc2c(C)cccc2C)CC1 (stereo not drawn) [ranolazine]
class of pH-dependence pattern (cluster analysis): Class A | Ratio Reversibility (pH 6.0/7.3, cc 100 mM): 0.873 | Ratio Tau Offset (pH 6.0/7.3, cc 100 mM): 1.223 | Ratio Tau Onset (pH 6.0/7.3, cc 100 mM): 0.632 | log Ratio App Aff (pH 6.0/7.3, cc 100 mM): -0.038 | Ratio Reversibility (pH 6.0/8.6, cc 100 mM): 1.042 | Ratio Tau Offset (pH 6.0/8.6, cc 100 mM): 1.663 | Ratio Tau Onset (pH 6.0/8.6, cc 100 mM): 0.667 | log Ratio App Aff (pH 6.0/8.6, cc 100 mM): -0.072 | τoffset (pH 6.0): 29.60 s | τonset (pH 6.0): 12.00 s | Kd [1]: 206 µM | Ratio Reversibility (pH 7.3/8.6, cc 100 mM): 1.194 | Ratio Tau Offset (pH 7.3/8.6, cc 100 mM): 1.360 | Ratio Tau Onset (pH 7.3/8.6, cc 100 mM): 1.056 | log Ratio App Aff (pH 7.3/8.6, cc 100 mM): -0.034 | τoffset (pH 7.3): 24.20 s | τonset (pH 7.3): 19.00 s | Kd [2]: 225 µM | τoffset (pH 8.6): 17.80 s | τonset (pH 8.6): 18.00 s | Kd [3]: 243 µM | Reversibility (pH=6.0, cc 100 mM): 0.76 | Kd (pH=6.0, cc 100 mM, read-out: Apparent Affinity): 206 µM | Reversibility (pH=7.3, cc 100 mM): 0.88 | Kd (pH=7.3, cc 100 mM, read-out: Apparent Affinity): 225 µM | Reversibility (pH=8.6, cc 100 mM): 0.73 | Kd (pH=8.6, cc 100 mM, read-out: Apparent Affinity): 243 µM

Nc1nc2ccc(OC(F)(F)F)cc2s1 [riluzole]
class of pH-dependence pattern (cluster analysis): Class G | τoffset (pH 6.0): 23.60 s | τonset (pH 6.0): 9.20 s | τoffset (pH 7.3): 21.40 s | τonset (pH 7.3): 9.60 s | τoffset (pH 8.6): 23.40 s | τonset (pH 8.6): 10.40 s | Reversibility (pH=6.0, cc 30 mM): 0.45 | Reversibility (pH=7.3, cc 30 mM): 0.73 | Reversibility (pH=8.6, cc 30 mM): 0.45
